What all share (assay): weeding effect in post-emergence stage
Common to all, as to type: in vivo
Conditions in all cases: dose 15 g a.i./ha

For one assay, the system named is Rorippa indica. An outline of the steps: (§1)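 Weeds grown in soil-filled pots in a greenhouse, sprayed at the 2-3 leaf stage (2 weeks after sowing) with compound in acetone/Tween 80 plus methyl oleate EC (1.5 L/ha) at 500 to 7.5 g a.i./ha. Fresh-weight growth control assessed 3 weeks later, triplicate means, scored on a 0-5 scale.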
The subject of a further assay is Alopecurus japonicus. An outline of the steps: as §1
Another assay has as its system Conyza japonica. An outline of the steps: as §1
Another assay deals with Beckmannia syzigachne. An outline of the steps:
as §1

On to `CCOC(=O)C1(C)CC(c2cc(-n3c(=O)n(C4CC4)c(=S)n(C4CC4)c3=O)c(F)cc2Cl)=NO1` (stereo not drawn) [Compound 1-66], for which, in the assay on Rorippa indica, the “weeding effect in post-emergence stage, Rorippa indica (activity level)” value (shortened to “weeding effect … Rorippa indica (activity level)”) is recorded as 5 (Level 5: growth control rate is above 85%). Besides, the “weeding effect in post-emergence stage, Alopecurus japonicus (activity level)” value in the assay with Alopecurus japonicus is 5 (Level 5: growth control rate is above 85%). Further, in the assay on Conyza japonica, the “weeding effect in post-emergence stage, Conyza japonica (activity level)” value was 5 (Level 5: growth control rate is above 85%). Further, the “weeding effect in post-emergence stage, Beckmannia syzigachne (activity level)” value in the assay on Beckmannia syzigachne is 5 (Level 5: growth control rate is above 85%).

For the molecule `CCOC(=O)C1(C)CC(c2cc(-n3c(=O)n(C)c(=S)n(C)c3=O)c(F)cc2C(F)(F)F)=NO1` (stereo not drawn) [Compound 1-67], the “weeding effect … Rorippa indica (activity level)” value in the assay with Rorippa indica is reported as 5 (Level 5: growth control rate is above 85%). Besides, the “weeding effect in post-emergence stage, Alopecurus japonicus (activity level)” value in the assay on Alopecurus japonicus is recorded as 5 (Level 5: growth control rate is above 85%). In the assay on Conyza japonica, the “weeding effect in post-emergence stage, Conyza japonica (activity level)” value is on record as 5 (Level 5: growth control rate is above 85%). The “weeding effect in post-emergence stage, Beckmannia syzigachne (activity level)” value with Beckmannia syzigachne was 5 (Level 5: growth control rate is above 85%).

As for `CCOC(=O)C1(C)CC(c2cc(-n3c(=O)n(C)c(=S)n(C)c3=O)c(F)cc2C#N)=NO1` (stereo not drawn) [Compound 1-69], the “weeding effect … Rorippa indica (activity level)” value with Rorippa indica is given as 5 (Level 5: growth control rate is above 85%). Besides, the “weeding effect in post-emergence stage, Alopecurus japonicus (activity level)” value in the assay on Alopecurus japonicus is reported as 5 (Level 5: growth control rate is above 85%). For the same molecule, in the assay with Conyza japonica, the “weeding effect in post-emergence stage, Conyza japonica (activity level)” value was 5 (Level 5: growth control rate is above 85%). Also, the “weeding effect in post-emergence stage, Beckmannia syzigachne (activity level)” value with Beckmannia syzigachne is 5 (Level 5: growth control rate is above 85%).

Regarding `CCCOC(=O)C1(C)CC(c2cc(-n3c(=O)n(C)c(=S)n(C)c3=O)c(F)cc2Cl)=NO1` (stereo not drawn) [Compound 1-70], in the assay on Rorippa indica, the “weeding effect … Rorippa indica (activity level)” value is 5 (Level 5: growth control rate is above 85%). For the same molecule, in the assay with Alopecurus japonicus, the “weeding effect in post-emergence stage, Alopecurus japonicus (activity level)” value is 5 (Level 5: growth control rate is above 85%). Moreover, the “weeding effect in post-emergence stage, Conyza japonica (activity level)” value in the assay with Conyza japonica is reported as 5 (Level 5: growth control rate is above 85%). Also, the “weeding effect in post-emergence stage, Beckmannia syzigachne (activity level)” value in the assay on Beckmannia syzigachne is reported as 5 (Level 5: growth control rate is above 85%).

For `CC(C)OC(=O)C1(C)CC(c2cc(-n3c(=O)n(C)c(=S)n(C)c3=O)c(F)cc2Cl)=NO1` (stereo not drawn) [Compound 1-71], in the assay on Rorippa indica, the “weeding effect … Rorippa indica (activity level)” value is listed as 5 (Level 5: growth control rate is above 85%). The “weeding effect in post-emergence stage, Alopecurus japonicus (activity level)” value with Alopecurus japonicus was 5 (Level 5: growth control rate is above 85%). For the same molecule, in the assay with Conyza japonica, the “weeding effect in post-emergence stage, Conyza japonica (activity level)” value was 5 (Level 5: growth control rate is above 85%). In the assay on Beckmannia syzigachne, the “weeding effect in post-emergence stage, Beckmannia syzigachne (activity level)” value was 5 (Level 5: growth control rate is above 85%).

In the case of `CCCCOC(=O)C1(C)CC(c2cc(-n3c(=O)n(C)c(=S)n(C)c3=O)c(F)cc2Cl)=NO1` (stereo not drawn) [Compound 1-72], in the assay on Rorippa indica, the “weeding effect … Rorippa indica (activity level)” value is listed as 5 (Level 5: growth control rate is above 85%). Besides, in the assay on Alopecurus japonicus, the “weeding effect in post-emergence stage, Alopecurus japonicus (activity level)” value is 5 (Level 5: growth control rate is above 85%). For the same molecule, the “weeding effect in post-emergence stage, Conyza japonica (activity level)” value in the assay on Conyza japonica is on record as 5 (Level 5: growth control rate is above 85%). In addition, the “weeding effect in post-emergence stage, Beckmannia syzigachne (activity level)” value in the assay with Beckmannia syzigachne is recorded as 5 (Level 5: growth control rate is above 85%).

In the case of `CC(C)COC(=O)C1(C)CC(c2cc(-n3c(=O)n(C)c(=S)n(C)c3=O)c(F)cc2Cl)=NO1` (stereo not drawn) [Compound 1-73], the “weeding effect … Rorippa indica (activity level)” value with Rorippa indica is given as 5 (Level 5: growth control rate is above 85%). Moreover, the “weeding effect in post-emergence stage, Alopecurus japonicus (activity level)” value in the assay on Alopecurus japonicus is recorded as 5 (Level 5: growth control rate is above 85%). The “weeding effect in post-emergence stage, Conyza japonica (activity level)” value with Conyza japonica is recorded as 5 (Level 5: growth control rate is above 85%). Further, the “weeding effect in post-emergence stage, Beckmannia syzigachne (activity level)” value with Beckmannia syzigachne is 5 (Level 5: growth control rate is above 85%).

`Cn1c(=S)n(C)c(=O)n(-c2cc(C3=NOC(C)(C(=O)OC(C)(C)C)C3)c(Cl)cc2F)c1=O` (stereo not drawn) [Compound 1-74]: the “weeding effect … Rorippa indica (activity level)” value with Rorippa indica is 5 (Level 5: growth control rate is above 85%). Besides, the “weeding effect in post-emergence stage, Alopecurus japonicus (activity level)” value in the assay on Alopecurus japonicus is 5 (Level 5: growth control rate is above 85%). For the same molecule, the “weeding effect in post-emergence stage, Conyza japonica (activity level)” value in the assay on Conyza japonica is 5 (Level 5: growth control rate is above 85%). For the same molecule, the “weeding effect in post-emergence stage, Beckmannia syzigachne (activity level)” value in the assay on Beckmannia syzigachne was 5 (Level 5: growth control rate is above 85%).

Turning to `CCCCCCC(C)OC(=O)C1(C)CC(c2cc(-n3c(=O)n(C)c(=S)n(C)c3=O)c(F)cc2Cl)=NO1` (stereo not drawn) [Compound 1-75], the “weeding effect … Rorippa indica (activity level)” value in the assay on Rorippa indica was 5 (Level 5: growth control rate is above 85%). Further, in the assay on Alopecurus japonicus, the “weeding effect in post-emergence stage, Alopecurus japonicus (activity level)” value is given as 5 (Level 5: growth control rate is above 85%). Moreover, in the assay with Conyza japonica, the “weeding effect in post-emergence stage, Conyza japonica (activity level)” value was 5 (Level 5: growth control rate is above 85%). Besides, the “weeding effect in post-emergence stage, Beckmannia syzigachne (activity level)” value with Beckmannia syzigachne is 5 (Level 5: growth control rate is above 85%).

With `C=CCOC(=O)C1(C)CC(c2cc(-n3c(=O)n(C)c(=S)n(C)c3=O)c(F)cc2Cl)=NO1` (stereo not drawn) [Compound 1-76], in the assay on Rorippa indica, the “weeding effect … Rorippa indica (activity level)” value was 5 (Level 5: growth control rate is above 85%). For the same molecule, in the assay on Alopecurus japonicus, the “weeding effect in post-emergence stage, Alopecurus japonicus (activity level)” value was 5 (Level 5: growth control rate is above 85%). The “weeding effect in post-emergence stage, Conyza japonica (activity level)” value in the assay on Conyza japonica is listed as 5 (Level 5: growth control rate is above 85%). For the same molecule, the “weeding effect in post-emergence stage, Beckmannia syzigachne (activity level)” value in the assay with Beckmannia syzigachne is listed as 5 (Level 5: growth control rate is above 85%).

For `C#CCOC(=O)C1(C)CC(c2cc(-n3c(=O)n(C)c(=S)n(C)c3=O)c(F)cc2Cl)=NO1` (stereo not drawn) [Compound 1-79], the “weeding effect … Rorippa indica (activity level)” value in the assay on Rorippa indica is 5 (Level 5: growth control rate is above 85%). In addition, the “weeding effect in post-emergence stage, Alopecurus japonicus (activity level)” value in the assay with Alopecurus japonicus is on record as 5 (Level 5: growth control rate is above 85%). The “weeding effect in post-emergence stage, Conyza japonica (activity level)” value with Conyza japonica was 5 (Level 5: growth control rate is above 85%). Moreover, in the assay on Beckmannia syzigachne, the “weeding effect in post-emergence stage, Beckmannia syzigachne (activity level)” value is 5 (Level 5: growth control rate is above 85%).

With `CC#CCOC(=O)C1(C)CC(c2cc(-n3c(=O)n(C)c(=S)n(C)c3=O)c(F)cc2Cl)=NO1` (stereo not drawn) [Compound 1-80], the “weeding effect … Rorippa indica (activity level)” value with Rorippa indica is 5 (Level 5: growth control rate is above 85%). Also, the “weeding effect in post-emergence stage, Alopecurus japonicus (activity level)” value in the assay on Alopecurus japonicus is reported as 5 (Level 5: growth control rate is above 85%). Besides, the “weeding effect in post-emergence stage, Conyza japonica (activity level)” value with Conyza japonica is on record as 5 (Level 5: growth control rate is above 85%). Further, the “weeding effect in post-emergence stage, Beckmannia syzigachne (activity level)” value in the assay with Beckmannia syzigachne was 5 (Level 5: growth control rate is above 85%).

For the molecule `C#CCCOC(=O)C1(C)CC(c2cc(-n3c(=O)n(C)c(=S)n(C)c3=O)c(F)cc2Cl)=NO1` (stereo not drawn) [Compound 1-81], the “weeding effect … Rorippa indica (activity level)” value in the assay on Rorippa indica was 5 (Level 5: growth control rate is above 85%). In addition, the “weeding effect in post-emergence stage, Alopecurus japonicus (activity level)” value in the assay on Alopecurus japonicus is given as 5 (Level 5: growth control rate is above 85%). Moreover, the “weeding effect in post-emergence stage, Conyza japonica (activity level)” value in the assay on Conyza japonica was 5 (Level 5: growth control rate is above 85%). Further, the “weeding effect in post-emergence stage, Beckmannia syzigachne (activity level)” value in the assay on Beckmannia syzigachne is on record as 5 (Level 5: growth control rate is above 85%).

Take `C#CC(C)OC(=O)C1(C)CC(c2cc(-n3c(=O)n(C)c(=S)n(C)c3=O)c(F)cc2Cl)=NO1` (stereo not drawn) [Compound 1-82]: the “weeding effect … Rorippa indica (activity level)” value in the assay on Rorippa indica was 5 (Level 5: growth control rate is above 85%). In addition, the “weeding effect in post-emergence stage, Alopecurus japonicus (activity level)” value in the assay on Alopecurus japonicus is reported as 5 (Level 5: growth control rate is above 85%). Besides, the “weeding effect in post-emergence stage, Conyza japonica (activity level)” value in the assay with Conyza japonica is 5 (Level 5: growth control rate is above 85%). Also, the “weeding effect in post-emergence stage, Beckmannia syzigachne (activity level)” value in the assay with Beckmannia syzigachne was 5 (Level 5: growth control rate is above 85%).

Regarding `Cn1c(=S)n(C)c(=O)n(-c2cc(C3=NOC(C)(C(=O)OC4CC4)C3)c(Cl)cc2F)c1=O` (stereo not drawn) [Compound 1-83], in the assay with Rorippa indica, the “weeding effect … Rorippa indica (activity level)” value is recorded as 5 (Level 5: growth control rate is above 85%). Besides, the “weeding effect in post-emergence stage, Alopecurus japonicus (activity level)” value in the assay with Alopecurus japonicus is given as 5 (Level 5: growth control rate is above 85%). Moreover, the “weeding effect in post-emergence stage, Conyza japonica (activity level)” value in the assay on Conyza japonica is on record as 5 (Level 5: growth control rate is above 85%). Also, the “weeding effect in post-emergence stage, Beckmannia syzigachne (activity level)” value in the assay with Beckmannia syzigachne is 5 (Level 5: growth control rate is above 85%).

For the molecule `Cn1c(=S)n(C)c(=O)n(-c2cc(C3=NOC(C)(C(=O)OCC4CC4)C3)c(Cl)cc2F)c1=O` (stereo not drawn) [Compound 1-84], the “weeding effect … Rorippa indica (activity level)” value in the assay with Rorippa indica is listed as 5 (Level 5: growth control rate is above 85%). The “weeding effect in post-emergence stage, Alopecurus japonicus (activity level)” value with Alopecurus japonicus was 5 (Level 5: growth control rate is above 85%). Also, the “weeding effect in post-emergence stage, Conyza japonica (activity level)” value in the assay with Conyza japonica is listed as 5 (Level 5: growth control rate is above 85%). Moreover, the “weeding effect in post-emergence stage, Beckmannia syzigachne (activity level)” value with Beckmannia syzigachne is recorded as 5 (Level 5: growth control rate is above 85%).

In the case of `Cn1c(=S)n(C)c(=O)n(-c2cc(C3=NOC(C)(C(=O)OCC(F)F)C3)c(Cl)cc2F)c1=O` (stereo not drawn) [Compound 1-86], the “weeding effect … Rorippa indica (activity level)” value with Rorippa indica is listed as 5 (Level 5: growth control rate is above 85%). Besides, the “weeding effect in post-emergence stage, Alopecurus japonicus (activity level)” value in the assay with Alopecurus japonicus was 5 (Level 5: growth control rate is above 85%). The “weeding effect in post-emergence stage, Conyza japonica (activity level)” value in the assay on Conyza japonica is on record as 5 (Level 5: growth control rate is above 85%). In addition, in the assay with Beckmannia syzigachne, the “weeding effect in post-emergence stage, Beckmannia syzigachne (activity level)” value was 5 (Level 5: growth control rate is above 85%).

Consider `Cn1c(=S)n(C)c(=O)n(-c2cc(C3=NOC(C)(C(=O)OCC(F)(F)F)C3)c(Cl)cc2F)c1=O` (stereo not drawn) [Compound 1-87], for which the “weeding effect … Rorippa indica (activity level)” value with Rorippa indica is 5 (Level 5: growth control rate is above 85%). Moreover, in the assay on Alopecurus japonicus, the “weeding effect in post-emergence stage, Alopecurus japonicus (activity level)” value was 5 (Level 5: growth control rate is above 85%). Moreover, the “weeding effect in post-emergence stage, Conyza japonica (activity level)” value in the assay on Conyza japonica was 5 (Level 5: growth control rate is above 85%). For the same molecule, the “weeding effect in post-emergence stage, Beckmannia syzigachne (activity level)” value in the assay on Beckmannia syzigachne is listed as 5 (Level 5: growth control rate is above 85%).

These data come from patent US12509452B2, “Substituted-isoxazoline-containing aromatic compound, preparation method therefor, herbicidal composition and use thereof” (QINGDAO KINGAGROOT CHEMICAL COMPOUND CO., LTD., priority 2019, dated 2025).
